{"source": "patent US20180353483A1", "about": "“PHARMACEUTICAL COMPOSITIONS AND METHODS FOR INDOLEAMINE, 2, 3-DIOXYGENASE INHIBITION AND INDICATIONS THEREFOR” (Incyte Corporation, priority 2015, published 2018)", "test": "Pharmacokinetics of Compound 1 in combination with MK-3475 in subjects with various cancers", "assay_type": "in vivo, human", "experimental": "The subjects were not limited to a specific cancers and study include subjects with various cancers. […] One treatment cycle consisted of 21 days. […] Additional subjects were enrolled in a cohort to achieve the minimum of 3 evaluable subjects if dropouts or dose interruptions or reductions occur that result in a subject being non-evaluable for DLTs. […] An additional safety cohort was opened at 100 mg BID in parallel to 300 mg BID being tested. This may also be limited to subjects with melanoma, NSCLC, or specific cancer types from among those included in Phase 1. The RP2D was selected from the evaluated safety expansions.\nIf a dose was missed by more than 4 hours, that dose was skipped and was resumed at the scheduled time.\nPharmacokinetic samples were obtained at the visits of Cycle 1 Day 1, Cycle 1 Day 8 and Cycle 2 Day 1. […] The exact date and time of the PK blood draws were recorded in the eCRF along with the date and time of the last dose of study drug and details of the last meal preceding the blood draw.\nThe planned PK time points were used for preliminary PK analyses.", "key": {"[1]": {"conditions": "by dose, 25 mg, first dose, geometric mean"}, "[2]": {"conditions": "by dose, 25 mg, first dose, mean ± SD"}, "[3]": {"conditions": "by dose, 50 mg BID, steady state C1D8, mean ± SD"}, "[4]": {"conditions": "by dose, 100 mg BID, steady state C1D8, mean ± SD"}, "[5]": {"conditions": "by dose, 100 mg, first dose, geometric mean"}}, "note": "Where two headings read alike, the source gives them in different places."}
{"molecule": "NS(=O)(=O)NCCNc1nonc1C(=NO)Nc1ccc(F)c(Br)c1", "note": "[Compound 1, 4-({2-[(aminosulfonyl)amino]ethyl}amino)-N-(3-bromo-4-fluorophenyl)-N′-hydroxy-1,2,5-oxadiazole-3-carboximidamide]", "values": [{"measurement": "tmax", "setting": "Diagnosis TNBC, steady state C1D8, median", "result": 2.00, "unit": "h"}, {"measurement": "CL/F", "setting": "Dose Reduction By C4D1 subjects (Table 13), steady state C1D8, mean ± SD", "result": "28.4 ± 11.1", "unit": "L/h"}, {"measurement": "tmax", "setting": "Dose Reduction By C4D1 subjects (Table 13), steady state C1D8, median", "result": 2.00, "unit": "h"}, {"measurement": "CL/F", "setting": "by dose, 25 mg BID, steady state C1D8, mean ± SD", "result": "46.2 ± 8.91", "unit": "L/h"}, {"measurement": "tmax", "setting": "by dose, 25 mg BID, steady state C1D8, median", "result": 1.00, "unit": "h"}, {"measurement": "AUC(0-t)", "setting": "[1]", "result": "(0.650) μM * h"}, {"measurement": "Cmax", "setting": "[1]", "result": 199, "unit": "nM"}, {"measurement": "AUC(0-t)", "setting": "[2]", "result": "0.711 ± 0.349", "unit": "µM·h"}, {"measurement": "Cmax", "setting": "[2]", "result": "231 ± 151", "unit": "nM"}, {"measurement": "tmax", "setting": "by dose, 25 mg, first dose, median", "result": 2.00, "unit": "h"}, {"measurement": "Cmax", "setting": "by dose, 50 mg BID, steady state C1D8, geometric mean", "result": 452, "unit": "nM"}, {"measurement": "CL/F", "setting": "[3]", "result": "68.8 ± 29.0", "unit": "L/h"}, {"measurement": "Cmax", "setting": "[3]", "result": "502 ± 237", "unit": "nM"}, {"measurement": "tmax", "setting": "by dose, 50 mg BID, steady state C1D8, median", "result": 2.00, "unit": "h"}, {"measurement": "Cmax", "setting": "by dose, 50 mg, first dose, geometric mean", "result": 500, "unit": "nM"}, {"measurement": "Cmax", "setting": "by dose, 50 mg, first dose, mean ± SD", "result": "537 ± 217", "unit": "nM"}, {"measurement": "tmax", "setting": "by dose, 50 mg, first dose, median", "result": 2.00, "unit": "h"}, {"measurement": "Cmax", "setting": "by dose, 100 mg BID, steady state C1D8, geometric mean", "result": 806, "unit": "nM"}, {"measurement": "CL/F", "setting": "[4]", "result": "69.1 ± 28.9", "unit": "L/h"}, {"measurement": "Cmax", "setting": "[4]", "result": "917 ± 424", "unit": "nM"}, {"measurement": "tmax", "setting": "by dose, 100 mg BID, steady state C1D8, median", "result": 2.00, "unit": "h"}, {"measurement": "AUC(0-t)", "setting": "[5]", "result": "(2.32) μM * h"}, {"measurement": "Cmax", "setting": "[5]", "result": 719, "unit": "nM"}, {"measurement": "Cmax", "setting": "by dose, 100 mg, first dose, mean ± SD", "result": "803 ± 378", "unit": "nM"}, {"measurement": "tmax", "setting": "by dose, 100 mg, first dose, median", "result": 2.00, "unit": "h"}, {"measurement": "Cmax", "setting": "by dose, 300 mg BID, steady state C1D8, geometric mean", "result": 2510, "unit": "nM"}, {"measurement": "CL/F", "setting": "by dose, 300 mg BID, steady state C1D8, mean ± SD", "result": "64.9 ± 22.7", "unit": "L/h"}, {"measurement": "tmax", "setting": "by dose, 300 mg BID, steady state C1D8, median", "result": 2.00, "unit": "h"}, {"measurement": "Cmax", "setting": "by dose, 300 mg, first dose, geometric mean", "result": 2020, "unit": "nM"}, {"measurement": "Cmax", "setting": "by dose, 300 mg, first dose, mean ± SD", "result": "2290 ± 1230", "unit": "nM"}, {"measurement": "tmax", "setting": "by dose, 300 mg, first dose, median", "result": 2.00, "unit": "h"}, {"measurement": "Cmax", "setting": "human, plasma, oral, 25 mg, Cohort 1, 25 mg BID, steady state C1D8, geometric mean", "result": 276, "unit": "nM"}, {"measurement": "AUC(0-t)", "setting": "human, plasma, oral, 25 mg, Cohort 1, 25 mg BID, steady state C1D8, geometric mean, read-out: AUC0-12 h (converted)", "result": 1.25, "unit": "µM·h"}, {"measurement": "Cmax", "setting": "human, plasma, oral, 25 mg, Cohort 1, 25 mg BID, steady state C1D8, mean ± SD", "result": "307 ± 150", "unit": "nM"}, {"measurement": "AUC(0-t)", "setting": "human, plasma, oral, 25 mg, Cohort 1, 25 mg BID, steady state C1D8, mean ± SD, read-out: AUC0-12 h (converted)", "result": "1.27 ± 0.23", "unit": "µM·h"}, {"measurement": "Cmax", "setting": "human, plasma, oral, 25 mg, by dose, 25 mg BID, steady state C1D8, geometric mean", "result": 276, "unit": "nM"}, {"measurement": "AUC(0-t)", "setting": "human, plasma, oral, 25 mg, by dose, 25 mg BID, steady state C1D8, geometric mean, read-out: AUC0-12 h (converted)", "result": 1.25, "unit": "µM·h"}, {"measurement": "Cmax", "setting": "human, plasma, oral, 25 mg, by dose, 25 mg BID, steady state C1D8, mean ± SD", "result": "307 ± 150", "unit": "nM"}, {"measurement": "AUC(0-t)", "setting": "human, plasma, oral, 25 mg, by dose, 25 mg BID, steady state C1D8, mean ± SD, read-out: AUC0-12 h (converted)", "result": "1.27 ± 0.23", "unit": "µM·h"}, {"measurement": "Cmax", "setting": "human, plasma, oral, 50 mg, Cohort 2, 50 mg BID, steady state C1D8, geometric mean", "result": 550, "unit": "nM"}, {"measurement": "AUC(0-t)", "setting": "human, plasma, oral, 50 mg, Cohort 2, 50 mg BID, steady state C1D8, geometric mean, read-out: AUC0-12 h (converted)", "result": 2.34, "unit": "µM·h"}, {"measurement": "Cmax", "setting": "human, plasma, oral, 50 mg, Cohort 2, 50 mg BID, steady state C1D8, mean ± SD", "result": "603 ± 227", "unit": "nM"}, {"measurement": "AUC(0-t)", "setting": "human, plasma, oral, 50 mg, Cohort 2, 50 mg BID, steady state C1D8, mean ± SD, read-out: AUC0-12 h (converted)", "result": "2.53 ± 1.02", "unit": "µM·h"}, {"measurement": "AUC(0-t)", "setting": "human, plasma, oral, 50 mg, Cohort 2, 50 mg, first dose, geometric mean, read-out: AUC0-t", "result": 1.53, "unit": "µM·h"}, {"measurement": "Cmax", "setting": "human, plasma, oral, 50 mg, Cohort 2, 50 mg, first dose, mean ± SD", "result": "574 ± 216", "unit": "nM"}, {"measurement": "AUC(0-t)", "setting": "human, plasma, oral, 50 mg, Cohort 2, 50 mg, first dose, mean ± SD, read-out: AUC0-t", "result": "1.6 ± 0.507", "unit": "µM·h"}, {"measurement": "Cmax", "setting": "human, plasma, oral, 50 mg, Cohort 4 (MEL), 50 mg BID, steady state C1D8, geometric mean", "result": 403, "unit": "nM"}, {"measurement": "AUC(0-t)", "setting": "human, plasma, oral, 50 mg, Cohort 4 (MEL), 50 mg BID, steady state C1D8, geometric mean, read-out: AUC0-12 h (converted)", "result": 1.58, "unit": "µM·h"}, {"measurement": "Cmax", "setting": "human, plasma, oral, 50 mg, Cohort 4 (MEL), 50 mg BID, steady state C1D8, mean ± SD", "result": "442 ± 232", "unit": "nM"}, {"measurement": "AUC(0-t)", "setting": "human, plasma, oral, 50 mg, Cohort 4 (MEL), 50 mg BID, steady state C1D8, mean ± SD, read-out: AUC0-12 h (converted)", "result": "1.77 ± 1.12", "unit": "µM·h"}, {"measurement": "tmax", "setting": "human, plasma, oral, 50 mg, Cohort 4 (MEL), 50 mg BID, steady state C1D8, median, read-out: tmax", "result": 1.5, "unit": "h"}, {"measurement": "AUC(0-t)", "setting": "human, plasma, oral, 50 mg, Cohort 4 (MEL), 50 mg, first dose, geometric mean, read-out: AUC0-t", "result": 1.2, "unit": "µM·h"}, {"measurement": "AUC(0-t)", "setting": "human, plasma, oral, 50 mg, Cohort 4 (MEL), 50 mg, first dose, mean ± SD, read-out: AUC0-t", "result": "1.32 ± 0.698", "unit": "µM·h"}, {"measurement": "Cmax", "setting": "human, plasma, oral, 50 mg, Cohort 4 (MEL), first dose, geometric mean", "result": 474, "unit": "nM"}, {"measurement": "Cmax", "setting": "human, plasma, oral, 50 mg, Cohort 4 (MEL), first dose, mean ± SD", "result": "512 ± 224", "unit": "nM"}, {"measurement": "AUC(0-t)", "setting": "human, plasma, oral, 50 mg, by dose, 50 mg BID, steady state C1D8, geometric mean, read-out: AUC0-12 h (converted)", "result": 1.83, "unit": "µM·h"}, {"measurement": "AUC(0-t)", "setting": "human, plasma, oral, 50 mg, by dose, 50 mg BID, steady state C1D8, mean ± SD, read-out: AUC0-12 h (converted)", "result": "2.05 ± 1.12", "unit": "µM·h"}, {"measurement": "AUC(0-t)", "setting": "human, plasma, oral, 50 mg, by dose, 50 mg, first dose, geometric mean, read-out: AUC0-t", "result": 1.33, "unit": "µM·h"}, {"measurement": "AUC(0-t)", "setting": "human, plasma, oral, 50 mg, by dose, 50 mg, first dose, mean ± SD, read-out: AUC0-t", "result": "1.43 ± 0.63", "unit": "µM·h"}, {"measurement": "Cmax", "setting": "human, plasma, oral, 50 mg, subjects with dose reduction before C4D1, 50 mg BID, C1D8, geometric mean", "result": 519, "unit": "nM"}, {"measurement": "Cmax", "setting": "human, plasma, oral, 50 mg, subjects with dose reduction before C4D1, 50 mg BID, C1D8, mean ± SD", "result": "557 ± 260", "unit": "nM"}, {"measurement": "Cmax", "setting": "human, plasma, oral, 100 mg BID, All diagnoses, steady state C1D8, geometric mean", "result": 1010, "unit": "nM"}]}
